Measurements published in patent publication US20200253929A1, “TREATMENT OF EPILEPSY” (priority 2017, published 2020).

Assays:
[1] = Plasma protein binding assay (rapid equilibrium dialysis); assay type: in vitro ADME; conditions: for Protein binding: rapid equilibrium dialysis, 5 μM, 5 h
Description: Protocol was based on literature [Kumar Singh et al. (2012)1 Bioeq. Bioay. S14]. Rapid equilibrium dialysis was performed with RED device inserts (Thermo Scientific, Meridian Rd., Rockford, Ill.) containing dialysis membrane with a molecular weight cut-off of 8,000 Daltons. Serum (200 μL) containing test compound (5 μM) was added to the serum chamber of the insert and 350 μL of buffer was added to the buffer chamber of the insert. Dialysis was done at 37° C. with shaking at 100 rpm for 5 h. Following dialysis, an aliquot of 50 μL was removed from each well (plasma and buffer side) and diluted with an equal volume of opposite matrix to nullify the matrix effect. Then a fraction (50 μL) of each dialyzed sample was crashed with 150 μL of acetonitrile containing internal standard and vortexed for 1 min. The samples were centrifuged at 13300 rpm at 4° C. for 12 min and 100 μL of supernatant was used for LC-MS/MS analysis.

hERG channel = target: T1, hERG channel (Homo sapiens, UniProt Q12809); test: Cardiotoxicity fluorescence-based assay, hERG channel; assay type: cell-based; conditions: HEK293 cells
T1 construct: expressed in transfected cells; host or cells: HEK293
T1 sequence (Q12809 whole entry): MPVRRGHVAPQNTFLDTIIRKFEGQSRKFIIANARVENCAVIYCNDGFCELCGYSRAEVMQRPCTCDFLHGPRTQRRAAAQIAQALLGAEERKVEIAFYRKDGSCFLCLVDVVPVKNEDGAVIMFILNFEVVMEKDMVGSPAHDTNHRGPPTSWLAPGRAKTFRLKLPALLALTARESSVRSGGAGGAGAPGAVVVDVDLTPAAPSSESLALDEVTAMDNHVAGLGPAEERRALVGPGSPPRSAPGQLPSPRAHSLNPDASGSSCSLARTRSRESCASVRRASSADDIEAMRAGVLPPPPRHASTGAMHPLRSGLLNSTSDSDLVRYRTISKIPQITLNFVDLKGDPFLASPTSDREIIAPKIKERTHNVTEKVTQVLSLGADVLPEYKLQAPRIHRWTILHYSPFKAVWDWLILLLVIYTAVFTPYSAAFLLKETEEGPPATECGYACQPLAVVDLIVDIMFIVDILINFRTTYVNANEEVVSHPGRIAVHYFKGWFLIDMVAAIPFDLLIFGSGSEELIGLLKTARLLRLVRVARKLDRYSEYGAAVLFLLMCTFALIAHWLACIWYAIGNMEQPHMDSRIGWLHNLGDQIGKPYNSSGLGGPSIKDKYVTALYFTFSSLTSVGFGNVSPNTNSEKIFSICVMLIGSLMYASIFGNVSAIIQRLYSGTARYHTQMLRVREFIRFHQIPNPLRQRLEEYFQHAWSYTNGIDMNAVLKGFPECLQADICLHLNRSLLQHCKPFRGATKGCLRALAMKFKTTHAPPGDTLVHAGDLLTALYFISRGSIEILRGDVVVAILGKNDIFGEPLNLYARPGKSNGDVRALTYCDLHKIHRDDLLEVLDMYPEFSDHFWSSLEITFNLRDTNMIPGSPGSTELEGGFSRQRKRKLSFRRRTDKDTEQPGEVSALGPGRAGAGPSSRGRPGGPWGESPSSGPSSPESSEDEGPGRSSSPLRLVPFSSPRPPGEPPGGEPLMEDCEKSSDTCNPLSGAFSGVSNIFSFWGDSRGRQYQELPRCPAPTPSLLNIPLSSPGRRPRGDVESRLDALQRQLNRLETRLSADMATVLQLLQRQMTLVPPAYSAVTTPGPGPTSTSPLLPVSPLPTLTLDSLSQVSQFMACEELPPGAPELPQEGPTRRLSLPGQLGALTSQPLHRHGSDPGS
Description: (§1) Fluorescence-based assays were performed using HEK293 cell lines that stably express the Nav1.5-channel, Cav1.2-channel or hERG K+-channel, using FMP Red Dye (Molecular Devices), calcium-sensitive fluorescent dye Fluo-4 (Invitrogen) and FIuxOR™ reagent (Invitrogen), respectively, and a FLIPR Tetra High-Throughput Cellular Screening System (Molecular Devices), according to manufacturer's protocols (Molecular Devices). Tetrodotoxin (TTX), israpidine and nicarpidine, and astemizole and haloperidol were used as standard sodium channel, calcium channel, and hERG channel blockers. Data were analyzed using Genedata Screener.

Cav1.2 channel = target: T2, Cav1.2 channel (Homo sapiens, UniProt Q13936); test: Cardiotoxicity fluorescence-based assay, Cav1.2 channel; assay type: cell-based; conditions: HEK293 cells
T2 construct: expressed in transfected cells; host or cells: HEK293
T2 sequence (P54289 25-1103): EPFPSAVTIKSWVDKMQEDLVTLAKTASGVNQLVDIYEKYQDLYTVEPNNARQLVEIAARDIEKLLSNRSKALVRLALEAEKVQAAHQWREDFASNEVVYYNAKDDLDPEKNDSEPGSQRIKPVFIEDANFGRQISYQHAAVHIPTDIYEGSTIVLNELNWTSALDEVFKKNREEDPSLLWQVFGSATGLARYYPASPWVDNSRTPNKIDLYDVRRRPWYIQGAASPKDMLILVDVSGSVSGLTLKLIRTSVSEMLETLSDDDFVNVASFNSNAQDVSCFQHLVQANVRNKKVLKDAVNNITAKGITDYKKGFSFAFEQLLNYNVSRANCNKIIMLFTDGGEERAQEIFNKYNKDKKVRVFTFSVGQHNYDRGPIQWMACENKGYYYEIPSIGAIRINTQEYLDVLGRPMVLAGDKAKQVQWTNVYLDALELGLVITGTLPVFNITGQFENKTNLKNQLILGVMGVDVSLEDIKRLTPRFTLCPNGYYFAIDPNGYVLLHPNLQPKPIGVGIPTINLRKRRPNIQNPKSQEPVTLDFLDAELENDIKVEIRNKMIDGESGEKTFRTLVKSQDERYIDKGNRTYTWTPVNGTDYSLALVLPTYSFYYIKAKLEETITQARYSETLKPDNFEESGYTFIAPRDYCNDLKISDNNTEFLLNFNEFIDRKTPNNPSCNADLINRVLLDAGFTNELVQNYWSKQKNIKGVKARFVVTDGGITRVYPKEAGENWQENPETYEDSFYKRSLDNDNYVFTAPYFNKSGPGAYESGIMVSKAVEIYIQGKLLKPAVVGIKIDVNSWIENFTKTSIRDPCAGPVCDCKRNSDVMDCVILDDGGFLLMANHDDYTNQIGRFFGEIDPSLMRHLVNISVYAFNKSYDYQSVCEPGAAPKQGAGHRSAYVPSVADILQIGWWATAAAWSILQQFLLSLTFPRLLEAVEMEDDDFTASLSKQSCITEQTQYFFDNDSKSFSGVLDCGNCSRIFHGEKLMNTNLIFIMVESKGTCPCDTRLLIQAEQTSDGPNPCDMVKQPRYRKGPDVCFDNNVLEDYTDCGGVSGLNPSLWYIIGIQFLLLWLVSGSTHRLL
T2 sequence (Q08289 whole entry, further chain): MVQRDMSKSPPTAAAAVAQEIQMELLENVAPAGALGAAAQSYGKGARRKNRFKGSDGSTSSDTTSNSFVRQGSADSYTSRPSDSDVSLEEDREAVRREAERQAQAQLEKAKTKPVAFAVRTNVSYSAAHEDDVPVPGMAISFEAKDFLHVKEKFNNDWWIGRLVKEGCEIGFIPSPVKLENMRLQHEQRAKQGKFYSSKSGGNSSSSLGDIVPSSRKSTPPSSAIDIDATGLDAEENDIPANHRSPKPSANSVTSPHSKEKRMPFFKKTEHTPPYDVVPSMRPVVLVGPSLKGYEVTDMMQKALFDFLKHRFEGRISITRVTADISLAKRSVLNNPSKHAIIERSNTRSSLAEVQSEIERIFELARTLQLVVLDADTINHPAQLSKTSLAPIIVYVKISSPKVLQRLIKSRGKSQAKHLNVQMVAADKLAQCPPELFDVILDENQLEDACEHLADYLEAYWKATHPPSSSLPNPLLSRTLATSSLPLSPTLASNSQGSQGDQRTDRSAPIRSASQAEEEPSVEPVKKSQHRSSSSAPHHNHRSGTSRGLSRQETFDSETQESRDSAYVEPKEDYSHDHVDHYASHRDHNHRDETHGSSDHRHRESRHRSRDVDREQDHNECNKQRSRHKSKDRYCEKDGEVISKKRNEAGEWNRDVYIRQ
T2 sequence (Q13936 whole entry): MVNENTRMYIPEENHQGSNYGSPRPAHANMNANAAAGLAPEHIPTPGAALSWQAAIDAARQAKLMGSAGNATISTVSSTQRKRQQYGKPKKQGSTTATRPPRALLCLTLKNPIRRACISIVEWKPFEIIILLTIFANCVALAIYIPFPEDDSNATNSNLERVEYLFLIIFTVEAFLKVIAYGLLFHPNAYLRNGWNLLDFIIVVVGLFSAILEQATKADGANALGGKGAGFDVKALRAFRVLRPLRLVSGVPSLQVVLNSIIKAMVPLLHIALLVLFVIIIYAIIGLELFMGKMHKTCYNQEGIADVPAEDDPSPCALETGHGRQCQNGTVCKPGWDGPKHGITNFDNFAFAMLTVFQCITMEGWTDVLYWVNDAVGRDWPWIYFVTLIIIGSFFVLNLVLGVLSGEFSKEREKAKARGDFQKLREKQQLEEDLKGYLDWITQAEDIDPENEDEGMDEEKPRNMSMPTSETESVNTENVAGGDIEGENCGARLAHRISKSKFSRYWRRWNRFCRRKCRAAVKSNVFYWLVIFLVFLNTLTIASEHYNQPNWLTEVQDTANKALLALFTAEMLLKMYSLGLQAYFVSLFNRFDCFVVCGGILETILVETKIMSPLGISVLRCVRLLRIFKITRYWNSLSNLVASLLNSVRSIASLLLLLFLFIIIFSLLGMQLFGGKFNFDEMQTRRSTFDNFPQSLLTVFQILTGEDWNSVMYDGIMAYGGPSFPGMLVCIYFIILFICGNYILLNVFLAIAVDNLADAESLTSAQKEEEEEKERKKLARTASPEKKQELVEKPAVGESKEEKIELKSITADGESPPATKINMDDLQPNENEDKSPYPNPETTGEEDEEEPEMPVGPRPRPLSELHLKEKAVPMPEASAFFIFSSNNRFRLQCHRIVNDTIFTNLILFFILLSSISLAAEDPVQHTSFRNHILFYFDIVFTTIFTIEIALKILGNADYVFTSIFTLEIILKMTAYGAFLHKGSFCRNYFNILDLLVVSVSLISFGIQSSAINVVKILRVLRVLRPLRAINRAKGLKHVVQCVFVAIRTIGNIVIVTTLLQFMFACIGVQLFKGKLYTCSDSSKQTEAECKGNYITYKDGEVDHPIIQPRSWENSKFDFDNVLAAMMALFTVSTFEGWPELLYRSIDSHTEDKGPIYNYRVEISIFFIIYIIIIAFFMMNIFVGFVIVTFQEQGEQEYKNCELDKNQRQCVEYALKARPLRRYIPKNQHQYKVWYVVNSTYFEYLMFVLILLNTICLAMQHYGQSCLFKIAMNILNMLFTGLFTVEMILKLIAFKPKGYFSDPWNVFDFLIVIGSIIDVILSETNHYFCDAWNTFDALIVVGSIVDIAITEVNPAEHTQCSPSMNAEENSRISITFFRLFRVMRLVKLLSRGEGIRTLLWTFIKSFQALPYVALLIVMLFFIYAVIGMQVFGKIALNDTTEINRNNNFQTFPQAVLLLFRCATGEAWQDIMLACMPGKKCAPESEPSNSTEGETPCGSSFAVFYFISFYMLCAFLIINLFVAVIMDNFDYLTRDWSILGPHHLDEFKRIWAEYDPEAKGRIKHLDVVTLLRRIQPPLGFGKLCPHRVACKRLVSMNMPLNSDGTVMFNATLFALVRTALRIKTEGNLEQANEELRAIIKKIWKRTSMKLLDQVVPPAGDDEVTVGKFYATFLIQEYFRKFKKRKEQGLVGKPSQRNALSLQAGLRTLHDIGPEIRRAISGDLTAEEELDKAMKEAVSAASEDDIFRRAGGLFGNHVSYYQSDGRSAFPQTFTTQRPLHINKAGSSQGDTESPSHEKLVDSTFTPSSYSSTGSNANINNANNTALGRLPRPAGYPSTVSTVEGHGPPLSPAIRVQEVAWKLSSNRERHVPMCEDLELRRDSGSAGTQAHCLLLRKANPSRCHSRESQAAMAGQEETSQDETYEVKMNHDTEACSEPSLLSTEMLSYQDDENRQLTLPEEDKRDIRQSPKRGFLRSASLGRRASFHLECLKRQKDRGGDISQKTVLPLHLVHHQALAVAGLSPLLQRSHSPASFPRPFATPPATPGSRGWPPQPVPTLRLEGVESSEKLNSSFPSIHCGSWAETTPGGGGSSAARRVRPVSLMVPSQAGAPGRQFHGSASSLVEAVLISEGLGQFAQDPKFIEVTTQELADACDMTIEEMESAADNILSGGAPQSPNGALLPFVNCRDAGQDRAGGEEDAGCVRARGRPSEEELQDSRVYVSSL
Description: as §1

THLE2 cells = test: Cell viability MTT assay, THLE2 cells; assay type: cell-based, human; conditions: 24 h incubation; for IC50: read-out: Cytotoxicity THLE2 cells IC50
Description: Protocol was based on literature [Patel and Patel. (2011) J. App. Pharm. Sci 1, 167-171]. Three cell lines were used: a) Hep G2 (HB-8065), a well-differentiated human hepatocellular carcinoma cell line, b) THLE-2, human liver epithelial cells transformed with SV40 large T-antigen and c) SHSYSY, a thrice-cloned sub-line of a human metastatic bone tumor. Cells were seeded at a concentration of 1×10^4 cells/well in 200 μL culture medium and incubated at 37° C. in 5% CO2 using 96-well plates for 24 h. Next, the medium was replaced with medium complemented with test compounds. After another 24 h incubation, the medium was replaced by 100 μL of a MTT (3-(4,5-dimethylthiazol-2-yl)-2,5-diphenyltetrazolium bromide) solution (5 mg/mL in PBS and diluted at 0.5 mg/mL in MEM without phenol red). The plates were gently shaken and incubated for 3 hours at 37° C. in a 5% CO2 incubator. The supernatant was removed and 100 μL of 100% DMSO was added. The plates were gently shaken to solubilize the formed formazan. The absorbance was measured using a multireader (Victor2 (Wallac)) at a wavelength of 570 nm.

[2] = system: PTZ-induced seizures in zebrafish larvae; test: Zebrafish PTZ seizure model, behavioral analysis; assay type: in vivo, Danio rerio; conditions: for PTZ-induced seizures (seizure-like behavior): vs VHC+PTZ
Description: To investigate whether the isolated compounds display antiseizure activity, they were tested in the zebrafish PTZ seizure model after both an acute (2 hours) and chronic (18 hours) incubation time at their maximum tolerated concentration (MTC) (Table 1, FIG. 1).
In case no MTC was reached, 100 μg/mL was used as the test concentration. In line with studies previously reported [Baraban et al. (2005) Neurosci 131, 759-768; Afrikanova et al. (2013) PLoS One 8, e54166], addition of the GABAA-receptor antagonist PTZ to the swimming water of 7 days post-fertilization (dpf) zebrafish larvae strongly elevated larval locomotion (p≤0.001) (FIGS. 2 and 3) as a result of induced seizures (or seizure-like behavior) that were recognized as typical high-speed swimming, whirlpool-like circling, clonus-like seizures, and loss of posture, as previously described in Baraban et al cited above.
Experimental procedure was described in Afrikanova et al.(2013) PLoS One 8, e54166 and Orellana-Paucar et al. (2012) Epilepsy Behav 24, 14-22. In brief, a single 7 dpf larva (in case of 2 hours incubation) or 6 dpf larva (in case of 18 hours incubation) was placed in each well of a 96-well plate and treated with either VHC (1% DMSO) or compound (1% DMSO) in a 100 μL volume. Larvae were incubated in dark for 2 or 18 hours at 28° C., whereafter 100 μL of either VHC (embryo medium) or 40 mM PTZ (dissolved in embryo medium, 20 mM working concentration) was added to each well. Next, within 5 min the 96-well plate was placed in an automated tracking device (ZebraBox Viewpoint, France) and larval behavior was video recorded for 30 min. The complete procedure was performed in dark conditions using infrared light. Total locomotor activity was recorded by ZebraLab software (Viewpoint, France) and expressed in actinteg units, which is the sum of pixel changes detected during the defined time interval (5 min). Larval behavior was depicted as mean actinteg units/5 min during the 30 min recording period and over 5 min time intervals. Data are expressed as mean±SD or as mean ±SEM when the means of independent experiments were pooled.

Row | SMILES | Protein binding assay recovery [1] | Protein binding, percentage of free drug rating [1] | Protein binding [1] | Protein binding ([1]; listed as Azaspirofuran A) | Cardiotoxicity hERG channel, effect (hERG channel) | IC50 (hERG channel) | Cardiotoxicity Cav1.2 channel, effect (Cav1.2 channel) | IC50 (Cav1.2 channel) | Cytotoxicity THLE2 cells, effect (THLE2 cells) | IC50 (THLE2 cells) | PTZ-induced seizure behavior, concentration-response retest ([2]; at MTC, 2 hours incubation, 30 min recording, three independent experiments) | PTZ-induced seizures (seizure-like behavior) ([2]; at MTC, 2 hours of compound exposure) | Protein binding ([1]; listed as Pseurotin A2) | PTZ-induced seizure behavior, concentration-response retest ([2]; MTC, MTC/2, MTC/4, optimal incubation time, 30 min recording and 5 min intervals) | PTZ-induced seizures (seizure-like behavior) ([2]; at MTC, 18 hours of compound exposure)
1 | CCc1ccc(C2=C(C)C(=O)C3(O2)C(=O)NC(OC)(C(=O)c2ccccc2)C3O)o1 (stereo not drawn) [azaspirofuran A] | 66.7% | Low | 95% | 95.42% | No effect | > 50 µM | No effect | > 50 µM | Weak | > 50 µM | lowered PTZ-induced seizure behavior to the same extent as before | significantly lowered PTZ-induced seizures | – | – | –
2 | CC/C=C\[C@H](O)[C@H](O)C1=C(C)C(=O)[C@]2(O1)C(=O)N[C@](OC)(C(=O)c1ccccc1)[C@H]2O [pseurotin A2] | 100% | High | 37% | – | No effect | > 50 µM | No effect | > 50 µM | Weak | > 50 µM | – | – | 36.53% | concentration-dependent activity | significantly lowered PTZ-induced seizures
